Legend:
[1] = Solubility study of losartan potassium with different solubilizers and pH modifying agent; type: physicochemical; details: losartan potassium 10 mg/mL, below pH 5.5, citrate buffer 50 mM plus solubilizer
Description: The solubility of losartan potassium below pH 5.5 was checked in the presence of different solubilizers and pH modifying agent.

[2] = descriptive term; cited from earlier work

CCCCc1nc(Cl)c(CO)n1Cc1ccc(-c2ccccc2-c2nnn[nH]2)cc1.[K] [Losartan potassium, 2-butyl-4-chloro-1-[p-(o-1H-tetrazol-5-ylphenyl)benzyl]imidazole-5-methanol monopotassium salt]
Observations (solubility of losartan potassium) [1]: insolubility
Solubility in alcohols [2]: soluble
Solubility in chloroform [2]: practically insoluble
Solubility in common organic solvents, such as acetonitrile and methyl ethyl ketone [2]: slightly soluble
Solubility in water [2]: freely soluble

From US12496291B1, “Ready-to-use non-aqueous oral solution of losartan” (Liqmeds Worldwide Limited, priority 2024, dated 2025)
